# In patent US7118895B2, “Process for producing aglycon by using diglycosidase and flavor-improved food containing the aglycon and converting agent to be used in the process” (Amano Enzyme Inc., priority 2000, dated 2006):
# System: Crude diglycosidase
# Assay: Examination of temperature in the conversion into isoflavone aglycons by diglycosidase using soybean materials
# Format: biochemical, Penicillium multicolor IAM7153
# Set-up: Decomposition efficiency of glycitin family in roasted soy flour / Decomposition efficiency of daidzin family in roasted soy flour / Decomposition efficiency of genistin family in soymilk / Decomposition efficiency of daidzin family in soymilk / Decomposition efficiency of glycitin family in defatted soybean / Decomposition efficiency of daidzin family in defatted soybean: concentration or dose not given beside the values
# In short: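 Temperature series (30-80° C.) of crude diglycosidase, diluted to 1.88 AU/mL in 20 mM acetate pH 4.0, acting on roasted soy flour, soymilk, defatted soybean or soy protein concentrate. Samples quenched with ethanol after 0-6 h, centrifuged, filtered and analyzed by HPLC for glycosides versus aglycons.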
# [1] = 30° C., heat treatment of enzyme no, reaction time 0 h
# [2] = 30° C., heat treatment of enzyme no, reaction time 1 h
# [3] = 30° C., heat treatment of enzyme no, reaction time 3 h
# [4] = 30° C., heat treatment of enzyme no, reaction time 6 h
# [5] = 30° C., heat treatment of enzyme yes, reaction time 6 h
# [6] = 30 °C, heat treatment of enzyme: no, 0 h
# [7] = 30 °C, heat treatment of enzyme: no, 1 h
# [8] = 30 °C, heat treatment of enzyme: no, 3 h
# [9] = 30 °C, heat treatment of enzyme: no, 6 h
# [10] = 30 °C, heat treatment of enzyme: yes, 6 h
# [11] = 45° C., heat treatment of enzyme no, reaction time 0 h
# [12] = 45° C., heat treatment of enzyme no, reaction time 1 h
# [13] = 45° C., heat treatment of enzyme no, reaction time 3 h
# [14] = 45° C., heat treatment of enzyme no, reaction time 6 h
# [15] = 45° C., heat treatment of enzyme yes, reaction time 6 h
# [16] = 45 °C, heat treatment of enzyme: no, 0 h
# [17] = 45 °C, heat treatment of enzyme: no, 1 h
# [18] = 45 °C, heat treatment of enzyme: no, 3 h
# [19] = 45 °C, heat treatment of enzyme: no, 6 h
# [20] = 45 °C, heat treatment of enzyme: yes, 6 h
# [21] = 55° C., heat treatment of enzyme no, reaction time 0 h
# [22] = 55° C., heat treatment of enzyme no, reaction time 1 h
# [23] = 55° C., heat treatment of enzyme no, reaction time 3 h
# [24] = 55° C., heat treatment of enzyme no, reaction time 6 h
# [25] = 55° C., heat treatment of enzyme yes, reaction time 6 h
# [26] = 55 °C, heat treatment of enzyme: no, 0 h
# [27] = 55 °C, heat treatment of enzyme: no, 1 h
# [28] = 55 °C, heat treatment of enzyme: no, 3 h
# [29] = 55 °C, heat treatment of enzyme: no, 6 h
# [30] = 55 °C, heat treatment of enzyme: yes, 6 h
# [31] = 65° C., heat treatment of enzyme no, reaction time 0 h
# [32] = 65° C., heat treatment of enzyme no, reaction time 1 h
# [33] = 65° C., heat treatment of enzyme no, reaction time 3 h
# [34] = 65° C., heat treatment of enzyme no, reaction time 6 h
# [35] = 65° C., heat treatment of enzyme yes, reaction time 6 h
# [36] = 65 °C, heat treatment of enzyme: no, 0 h
# [37] = 65 °C, heat treatment of enzyme: no, 1 h
# [38] = 65 °C, heat treatment of enzyme: no, 3 h
# [39] = 65 °C, heat treatment of enzyme: no, 6 h
# [40] = 65 °C, heat treatment of enzyme: yes, 6 h
# [41] = 80° C., heat treatment of enzyme no, reaction time 0 h
# [42] = 80° C., heat treatment of enzyme no, reaction time 1 h
# [43] = 80° C., heat treatment of enzyme no, reaction time 3 h
# [44] = 80° C., heat treatment of enzyme no, reaction time 6 h
# [45] = 80° C., heat treatment of enzyme yes, reaction time 6 h
# [46] = 80 °C, heat treatment of enzyme: no, 0 h
# [47] = 80 °C, heat treatment of enzyme: no, 1 h
# [48] = 80 °C, heat treatment of enzyme: no, 3 h
# [49] = 80 °C, heat treatment of enzyme: no, 6 h
# [50] = 80 °C, heat treatment of enzyme: yes, 6 h
structure (smiles),measurement,setting,value
"O=C(O)CC(=O)OC[C@H]1O[C@@H](Oc2cc(O)c3c(=O)c(-c4ccc(O)cc4)coc3c2)[C@H](O)[C@@H](O)[C@@H]1O [malonylgenistin, 6″-O-malonylgenistin]",Decomposition efficiency of genistin family in concentrated soybean protein,[1],not detected
same,Decomposition efficiency of genistin family in defatted soybean,[1],47.0%
same,Decomposition efficiency of genistin family in concentrated soybean protein,[2],not detected
same,Decomposition efficiency of genistin family in defatted soybean,[2],51.3%
same,Decomposition efficiency of genistin family in concentrated soybean protein,[3],not detected
same,Decomposition efficiency of genistin family in defatted soybean,[3],49.1%
same,Decomposition efficiency of genistin family in concentrated soybean protein,[4],not detected
same,Decomposition efficiency of genistin family in defatted soybean,[4],45.6%
same,Decomposition efficiency of genistin family in concentrated soybean protein,[5],not detected
same,Decomposition efficiency of genistin family in defatted soybean,[5],49.5%
same,Decomposition efficiency of genistin family in roasted soy flour,[6],not detected
same,Decomposition efficiency of genistin family in soymilk,[6],58.5%
same,Decomposition efficiency of genistin family in roasted soy flour,[7],not detected
same,Decomposition efficiency of genistin family in soymilk,[7],56.5%
same,Decomposition efficiency of genistin family in roasted soy flour,[8],not detected
same,Decomposition efficiency of genistin family in soymilk,[8],47.9%
same,Decomposition efficiency of genistin family in roasted soy flour,[9],not detected
same,Decomposition efficiency of genistin family in soymilk,[9],36.1%
same,Decomposition efficiency of genistin family in roasted soy flour,[10],not detected
same,Decomposition efficiency of genistin family in soymilk,[10],57.7%
same,Decomposition efficiency of genistin family in concentrated soybean protein,[11],not detected
same,Decomposition efficiency of genistin family in defatted soybean,[11],47.0%
same,Decomposition efficiency of genistin family in concentrated soybean protein,[12],not detected
same,Decomposition efficiency of genistin family in defatted soybean,[12],49.0%
same,Decomposition efficiency of genistin family in concentrated soybean protein,[13],not detected
same,Decomposition efficiency of genistin family in defatted soybean,[13],46.8%
same,Decomposition efficiency of genistin family in concentrated soybean protein,[14],not detected
same,Decomposition efficiency of genistin family in defatted soybean,[14],44.2%
same,Decomposition efficiency of genistin family in concentrated soybean protein,[15],not detected
same,Decomposition efficiency of genistin family in defatted soybean,[15],48.1%
same,Decomposition efficiency of genistin family in roasted soy flour,[16],not detected
same,Decomposition efficiency of genistin family in soymilk,[16],57.8%
same,Decomposition efficiency of genistin family in roasted soy flour,[17],not detected
same,Decomposition efficiency of genistin family in soymilk,[17],49.4%
same,Decomposition efficiency of genistin family in roasted soy flour,[18],not detected
same,Decomposition efficiency of genistin family in soymilk,[18],34.7%
same,Decomposition efficiency of genistin family in roasted soy flour,[19],not detected
same,Decomposition efficiency of genistin family in soymilk,[19],20.7%
same,Decomposition efficiency of genistin family in roasted soy flour,[20],not detected
same,Decomposition efficiency of genistin family in soymilk,[20],57.2%
same,Decomposition efficiency of genistin family in concentrated soybean protein,[21],not detected
same,Decomposition efficiency of genistin family in defatted soybean,[21],47.0%
same,Decomposition efficiency of genistin family in concentrated soybean protein,[22],not detected
same,Decomposition efficiency of genistin family in defatted soybean,[22],48.8%
same,Decomposition efficiency of genistin family in concentrated soybean protein,[23],not detected
same,Decomposition efficiency of genistin family in defatted soybean,[23],46.1%
same,Decomposition efficiency of genistin family in concentrated soybean protein,[24],not detected
same,Decomposition efficiency of genistin family in defatted soybean,[24],43.4%
same,Decomposition efficiency of genistin family in concentrated soybean protein,[25],not detected
same,Decomposition efficiency of genistin family in defatted soybean,[25],47.8%
same,Decomposition efficiency of genistin family in roasted soy flour,[26],not detected
same,Decomposition efficiency of genistin family in soymilk,[26],59.1%
same,Decomposition efficiency of genistin family in roasted soy flour,[27],not detected
same,Decomposition efficiency of genistin family in soymilk,[27],46.9%
same,Decomposition efficiency of genistin family in roasted soy flour,[28],not detected
same,Decomposition efficiency of genistin family in soymilk,[28],32.5%
same,Decomposition efficiency of genistin family in roasted soy flour,[29],not detected
same,Decomposition efficiency of genistin family in soymilk,[29],20.4%
same,Decomposition efficiency of genistin family in roasted soy flour,[30],not detected
same,Decomposition efficiency of genistin family in soymilk,[30],53.3%
same,Decomposition efficiency of genistin family in concentrated soybean protein,[31],not detected
same,Decomposition efficiency of genistin family in defatted soybean,[31],47.0%
same,Decomposition efficiency of genistin family in concentrated soybean protein,[32],not detected
same,Decomposition efficiency of genistin family in defatted soybean,[32],48.9%
same,Decomposition efficiency of genistin family in concentrated soybean protein,[33],not detected
same,Decomposition efficiency of genistin family in defatted soybean,[33],45.2%
same,Decomposition efficiency of genistin family in concentrated soybean protein,[34],not detected
same,Decomposition efficiency of genistin family in defatted soybean,[34],41.1%
same,Decomposition efficiency of genistin family in concentrated soybean protein,[35],not detected
same,Decomposition efficiency of genistin family in defatted soybean,[35],39.7%
same,Decomposition efficiency of genistin family in roasted soy flour,[36],not detected
same,Decomposition efficiency of genistin family in soymilk,[36],58.5%
same,Decomposition efficiency of genistin family in roasted soy flour,[37],not detected
same,Decomposition efficiency of genistin family in soymilk,[37],48.9%
same,Decomposition efficiency of genistin family in roasted soy flour,[38],not detected
same,Decomposition efficiency of genistin family in soymilk,[38],40.6%
same,Decomposition efficiency of genistin family in roasted soy flour,[39],not detected
same,Decomposition efficiency of genistin family in soymilk,[39],31.8%
same,Decomposition efficiency of genistin family in roasted soy flour,[40],not detected
same,Decomposition efficiency of genistin family in soymilk,[40],44.6%
same,Decomposition efficiency of genistin family in concentrated soybean protein,[41],not detected
same,Decomposition efficiency of genistin family in defatted soybean,[41],47.0%
same,Decomposition efficiency of genistin family in concentrated soybean protein,[42],not detected
same,Decomposition efficiency of genistin family in defatted soybean,[42],43.8%
same,Decomposition efficiency of genistin family in concentrated soybean protein,[43],not detected
same,Decomposition efficiency of genistin family in defatted soybean,[43],32.5%
same,Decomposition efficiency of genistin family in concentrated soybean protein,[44],not detected
same,Decomposition efficiency of genistin family in defatted soybean,[44],20.9%
same,Decomposition efficiency of genistin family in concentrated soybean protein,[45],not detected
same,Decomposition efficiency of genistin family in defatted soybean,[45],20.1%
same,Decomposition efficiency of genistin family in roasted soy flour,[46],not detected
same,Decomposition efficiency of genistin family in soymilk,[46],57.8%
same,Decomposition efficiency of genistin family in roasted soy flour,[47],not detected
same,Decomposition efficiency of genistin family in soymilk,[47],50.4%
same,Decomposition efficiency of genistin family in roasted soy flour,[48],not detected
same,Decomposition efficiency of genistin family in soymilk,[48],37.7%
same,Decomposition efficiency of genistin family in roasted soy flour,[49],not detected
same,Decomposition efficiency of genistin family in soymilk,[49],24.1%
same,Decomposition efficiency of genistin family in roasted soy flour,[50],not detected
same,Decomposition efficiency of genistin family in soymilk,[50],22.9%
